Results reported in patent US11000535B2, “Anticancer composition and use thereof” (KAOHSIUNG MEDICAL UNIVERSITY, priority 2015, dated 2021).
Converted amounts (≈) assume the structure as drawn.

Tests used:
Hep3B cells = assay: alamarBlue cell viability, Hep3B; type: cell-based, human
Text: (§1) Next, we analyzed the effect of PGG on cell proliferation in different liver cancer cell lines, including Huh7, Hep3B (ATCC-No 8064), HepG2 (ATCC HB-8065), SK-HEP-1 (ATCC HTB-52), Mahlavu and HepG2 (ATCC HB-8065).
(§2) Please refer to FIG. 18, which illustrates the effect of PGG on cell proliferation in different liver cancer cell lines, wherein the numeral 1 denotes Huh7 cells, the numeral 2 denotes Hep3B cells, the numeral 3 denotes SK-HEP-1 cells, the numeral 4 denotes Mahlavu cells, and the numeral 5 denotes HepG2 cells. And cell viability was determined by the alamarBlue® viability assay. IC50 values of PGG in each cell line are shown as follows: Huh7 cells 0.03 mg/mL, Hep3B cells 0.07 mg/mL, SK-HEP-1 cells, Mahlavu cells and HepG2 0.10 mg/mL dose-dependent.
(§3) Human liver cancer cell lines Huh7, Hep G2, Hep 3B, SK-HEP-1, Mahlavu and embryonic kidney cell line HEK-293T all were cultured in Dulbecco's Modified Eagle's Medium (DMEM) (Gibco BRL, Grand Island, N.Y., USA) with 10% heat-inactivated fetal bovine serum (HyClone, Logan, Utah, USA), penicillin (100 U/mL), streptomycin ([…]), nonessential amino acids (0.1 mM/L) and L-glutamine (2 mM/L) in a humidified incubator with 5% CO2.

Mahlavu cells = assay: alamarBlue cell viability, Mahlavu; type: cell-based, human
Text: as §1, §2, §3

HepG2 cells = assay: alamarBlue cell viability, HepG2; type: cell-based, human
Text: as §1, §2, §3

Huh7 cells = assay: Antitumor effect of PGG, Huh7 xenograft; type: in vivo, nude mice; conditions: 300 mpk, once a day for 10 days
Procedure: To test the antitumor effect of PGG in vivo, Huh7 cells were implanted subcutaneously into nude mice.
By the same token, mice were subcutaneously injected with Huh7 cells (2×10^6) in order to test the anti-tumor effect of PGG in vivo.
Tumor growth was monitored (every day or three times per week) by using Vernier caliper measurement of the length (L) and width (W) of the tumor.
Tumor volume (TV) was calculated by using the formula volume=(L×W^2)/2.

GNMT = GNMT mRNA and protein expression in Huh7 cells (qPCR, immunoblot); type: cell-based, human
Procedure: RNA was prepared by using Tri Reagent (Sigma-Aldrich, St Louis, Mo., USA) and was reverse transcribed into cDNA using a Super Script II Reverse Transcriptase Kit (Invitrogen Inc., Carlsbad, Calif., USA).
PCR was performed on an ABI StepOne Plus System (Applied Biosystems, Foster City, Calif., USA) using the LightCycler® First Start DNA Master SYBR Green I reagent (Roche Diagnostics, Basel, Switzerland). The mRNA level was normalized using the TATA-box binding protein (TBP) mRNA level as the standard.
The following primers were used: GNMT forward, 5′-ACTGGATGACT CTGGACAA-3′ (SEQ ID NO. 3) and reverse, 5′-ACTGAGGATGTGGTCGT-3′(SEQ ID NO. 4); TBP forward, 5′-[…]-3′ (SEQ ID NO. 5) and reverse, 5′-[…]-3′(SEQ ID NO. 6); c-Myc forward, […](SEQ ID NO. 7) and reverse, […](SEQ ID NO. 8).
(§4) Cells or xenograft tumors were harvested with RIPA lysis buffer (50 mM Tris (pH 7.5), 150 mM NaCl, 1% Triton X-100, 0.1% sodium dodecyl sulfate (SDS), 0.5% sodium deoxycholate, supplemented with protease and phosphatase inhibitors (1 mM Phenylmethanesulfonyl Fluoride (PMSF), […], […] Tosyllysine Chloromethyl Ketone (TLCK), […] Tosyl phenylalanyl chloromethyl ketone (TPCK), […] aprotinin, 1 mM sodium fluoride (NaF), 5 mM sodium pyrophosphate (NaPPi) and 10 mM sodium orthovanadate (Na3VO4).
(§5) Protein lysates were quantified and separated on SDS-PAGE gel, and immunoblotting was carried out.
The following antibodies were used: anti-GNMT (14-1, YMAC Bio Tech, Taiwan), anti-caspase-3 (9H19L2, Thermo Scientific) and anti-actin (AC-15, Sigma-Aldrich).

c-Myc protein [1] = assay: c-Myc protein expression by immunoblotting, Huh7; type: cell-based, human; conditions: Huh7 cells
Procedure: (§6) Please refer to FIG. 32A, FIG. 32B, FIG. 33A and FIG. 33B.
as §4, §5

c-Myc protein [2] = assay: c-Myc protein expression by immunoblotting, HepG2; type: cell-based, human; conditions: HepG2 cells
Procedure: as §6, §4, §5

c-Myc protein [3] = assay: c-Myc protein expression by immunoblotting, HL60; type: cell-based, human; conditions: HL60 cells, 0.1 mg/mL
Procedure: (§7) Human prostate cancer cell line PC-3 and human promyelocytic leukemia cell line HL-60 were cultured in Gibco BRL company RPMI (Roswell Park Memorial Institute) 1640's medium.
as §4, §5

c-Myc protein [4] = assay: c-Myc protein expression by immunoblotting, PC-3; type: cell-based, human; conditions: PC-3 cells, 0.1 mg/mL
Procedure: as §7, §4, §5

[5] = test system: Huh7 cells (shLacZ, shGNMT, shMyc, c-Myc overexpression); assay: PGG cytotoxicity in Huh7 cells with GNMT or c-Myc knock-out or c-Myc overexpression; type: cell-based, human
Procedure: As to the mechanism for how to suppress the growth of liver cancer cells by PGG, it was deduced that by virtue of induced GNMT expression by PGG it could interfere liver cancer cells. And it can be expected to have the claimed therapeutic effect of PGG by knocking out GNMT. With transformed Huh7 cells, shRNAs which have stable expressions of GNMT are evaluated.
Please refer to FIG. 40, which illustrates PGG affects the viability in different cell lines, wherein the numeral 1 denotes shLacZ, the numeral 2 denotes shGNMT-1, and the numeral 3 denotes shGNMT-2.
Please refer to FIG. 41, which illustrates the viability in Huh7 cells, wherein the numeral 1 denotes vehicle, the numeral 2 denotes c-Myc, the numeral 3 denotes solvent, and the numeral 4 denotes PGG.
Please refer to FIG. 44, which illustrates the viability in Huh7 cells, wherein the numeral 1 denotes shLacZ, and the numeral 2 denotes shMyc.
Stablized cells comprises Huh7-GFP, Huh7-GNMT, Huh7-shGNMT, Huh7-shLacZ and Huh7-shMyc, which are established via the lentivirus system and cultured in Dulbecco's Modified Eagle's Medium (DMEM) (Gibco BRL, Grand Island, N.Y., USA) with 1 μg/ml puromycin.

O=C(OC[C@H]1O[C@@H](OC(=O)c2cc(O)c(O)c(O)c2)[C@H](OC(=O)c2cc(O)c(O)c(O)c2)[C@@H](OC(=O)c2cc(O)c(O)c(O)c2)[C@@H]1OC(=O)c1cc(O)c(O)c(O)c1)c1cc(O)c(O)c(O)c1 [PGG, 1,2,3,4,6-penta-O-galloyl-β-D-glucopyranoside]
IC50 (Hep3B cells): 70 µg/mL (≈ 74.4 µM)
IC50 (Mahlavu cells): 100 µg/mL (≈ 106 µM)
IC50 (HepG2 cells): 100 µg/mL (≈ 106 µM)
tumor growth (tumor volume) vs control group (Huh7 cells): significant inhibition in tumor growth
GNMT mRNA expression (GNMT; 0.1 mg/ml, Huh7 cells): induced GNMT mRNA expression
GNMT protein expression (GNMT; 0.1 mg/ml, Huh7 cells): induced GNMT protein expression
time of optimal induced effect on GNMT (GNMT; after administration, qPCR and immunoblot): 48 h
expression of c-Myc protein, dose dependence (c-Myc protein [1]): suppresses the expression of c-Myc protein in Huh7 cells in a dose-dependent manner
expression of c-Myc protein, time dependence (c-Myc protein [1]): suppresses the expression of c-Myc protein in Huh7 cells in a time-dependent manner
expression of c-Myc protein, dose dependence (c-Myc protein [2]): suppresses the expression of c-Myc protein in HepG2 cells in a dose-dependent manner
expression of c-Myc protein, time dependence (c-Myc protein [2]): suppresses the expression of c-Myc protein in HepG2 cells in a time-dependent manner
c-Myc protein expression (c-Myc protein [3]): inhibits c-Myc protein expression
c-Myc protein expression (c-Myc protein [4]): inhibits c-Myc protein expression
cytotoxicity with ectopically overexpressed c-Myc ([5]; 0.1 mg/mL, FIG. 41): there is still cytotoxicity
cytotoxicity when GNMT is knocked out (shGNMT-1, shGNMT-2 vs shLacZ) ([5]; FIG. 40): no obvious improvement for the cytotoxicity caused by PGG
cell viability of Huh7-shMyc cells compared with Huh7-shLacZ cells ([5]; FIG. 44): only slightly decrease cell viability
